Experimental findings from PubChem BioAssay (NCI) are described below.

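Five concentrations, 48 hours, 96-well plates. TGI: concentration producing complete growth inhibition.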

Some test systems named below: NCI-H522 lung; A498 renal; SK-MEL-5 melanoma; HL-60(TB) leukemia; OVCAR-5 ovarian; CCRF-CEM leukemia; SNB-75 CNS; RPMI-8226 leukemia; ACHN renal.
Holding throughout (assay): growth of human tumour cells (NCI), 48 h

With `CC(O)C(NC(=O)c1ccccc1)C(=O)N(Cc1ccccc1)Cc1ccccc1` (configuration not stated), the TGI with NCI-H522 lung is 26.5 µM; in the assay on A498 renal, over 100 µM; with SK-MEL-5 melanoma it was over 100 µM; in the assay with HL-60(TB) leukemia, over 100 µM; in the assay with OVCAR-5 ovarian, over 100 µM; in the assay with CCRF-CEM leukemia it was over 100 µM. Besides, the TGI in the assay with SNB-75 CNS, in the assay with RPMI-8226 leukemia and with ACHN renal was over 100 µM in each case.
Regarding `O=C1CCCC(O)=C1SC1=C(O)CCCC1=O`, the TGI in the assay on NCI-H522 lung, with A498 renal, in the assay with SK-MEL-5 melanoma, with HL-60(TB) leukemia, in the assay with OVCAR-5 ovarian and in the assay with CCRF-CEM leukemia was over 100 µM each time. The TGI in the assay with SNB-75 CNS and with RPMI-8226 leukemia was over 100 µM each time.
Consider `COc1ccccc1NC(=O)C1=C(C)NC(C)=C(C(=O)Nc2ccccc2OC)C1c1cccc2ccccc12`, for which the TGI with A498 renal was over 100 µM; with SK-MEL-5 melanoma, over 100 µM; in the assay with HL-60(TB) leukemia, over 100 µM; in the assay with OVCAR-5 ovarian it was over 100 µM; in the assay on CCRF-CEM leukemia, over 100 µM; in the assay with SNB-75 CNS, 98.8 µM. Besides, the TGI in the assay on RPMI-8226 leukemia and in the assay on ACHN renal was over 100 µM in each case.
`N#Cc1cc([N+](=O)[O-])ccc1NC(=O)C(=O)C(C(=O)c1ccc2ccccc2c1)C1OCc2ccccc21` (configuration not stated): the TGI was found to be 13.8 µM in the assay with NCI-H522 lung; 20.6 µM with A498 renal; 24.8 µM in the assay with SK-MEL-5 melanoma; 46.7 µM in the assay on HL-60(TB) leukemia; 29.2 µM in the assay on OVCAR-5 ovarian; 39.2 µM with CCRF-CEM leukemia. Besides, the values for the TGI in the assay with SNB-75 CNS, in the assay with RPMI-8226 leukemia and with ACHN renal were 16.1 µM, over 66.6 µM and over 71.1 µM, respectively.
For the compound `Oc1ccc2ccccc2c1N=Nc1ccc(Cl)cc1`, the TGI in the assay on NCI-H522 lung, in the assay with SK-MEL-5 melanoma, in the assay with HL-60(TB) leukemia, with OVCAR-5 ovarian, with CCRF-CEM leukemia and in the assay with SNB-75 CNS was over 100 µM in each case. In addition, the TGI in the assay with RPMI-8226 leukemia and in the assay with ACHN renal was over 100 µM in each case.
`CCCC(=O)c1ccc(=O)n(C)c1`: the TGI in the assay with NCI-H522 lung, with SK-MEL-5 melanoma, in the assay with HL-60(TB) leukemia, in the assay on OVCAR-5 ovarian, in the assay on CCRF-CEM leukemia and in the assay on SNB-75 CNS was over 100 µM each time. In addition, the TGI with RPMI-8226 leukemia and in the assay on ACHN renal was over 100 µM each time.
Turning to `CC(=O)OCCOCNC(=S)N/N=C(\C)c1cccs1`, the TGI in the assay on NCI-H522 lung, in the assay on A498 renal, with SK-MEL-5 melanoma, in the assay on HL-60(TB) leukemia, with OVCAR-5 ovarian and with CCRF-CEM leukemia was over 100 µM throughout. The TGI in the assay with SNB-75 CNS, with RPMI-8226 leukemia and in the assay with ACHN renal was over 100 µM in each case.
With `CCC(C)c1cccc(C)c1NC(=O)C(=O)Cc1nc2ccccc2s1` (configuration not stated), the TGI with NCI-H522 lung, in the assay with A498 renal, in the assay on SK-MEL-5 melanoma, with HL-60(TB) leukemia, in the assay with OVCAR-5 ovarian and in the assay with CCRF-CEM leukemia was over 100 µM throughout. Also, the TGI in the assay with SNB-75 CNS, in the assay on RPMI-8226 leukemia and with ACHN renal was over 100 µM each time.
For the compound `CCOc1ccc(NCC2CC/C(=C\c3ccc(Cl)cc3)C2=O)cc1` (configuration not stated), the TGI is 13.9 µM with NCI-H522 lung; over 95.9 µM in the assay with A498 renal; over 59.2 µM in the assay on SK-MEL-5 melanoma; 37.3 µM in the assay with HL-60(TB) leukemia; over 100 µM in the assay on OVCAR-5 ovarian; 22.8 µM in the assay with CCRF-CEM leukemia. The TGI in the assay on SNB-75 CNS was over 76.5 µM; with RPMI-8226 leukemia, 10.2 µM; with ACHN renal, over 60.3 µM.
Regarding `ClC1c2ccccc2C2(c3ccccc3)OOC1(c1ccccc1)O2` (configuration not stated), the TGI with NCI-H522 lung is 0.8 µM; in the assay with A498 renal, 4.45 µM; in the assay with SK-MEL-5 melanoma, 2.83 µM; with HL-60(TB) leukemia, 0.309 µM; with OVCAR-5 ovarian, 11.2 µM; in the assay with SNB-75 CNS, 3.27 µM. The TGI in the assay with RPMI-8226 leukemia was 3.17 µM; in the assay with ACHN renal it was 2.89 µM.
For `O=C(Oc1ccc2c(-c3ccccc3)c(C(=O)Nc3ccc(Cl)cc3)c(=O)oc2c1)c1ccccc1`, the TGI in the assay on NCI-H522 lung, in the assay with SK-MEL-5 melanoma, in the assay on HL-60(TB) leukemia, in the assay with CCRF-CEM leukemia, in the assay on SNB-75 CNS and in the assay with RPMI-8226 leukemia was over 100 µM throughout. The compound further returned a TGI in the assay with ACHN renal of over 100 µM.
On to `NC(CCc1ncc(-c2ccccc2)s1)C(=O)O` (configuration not stated), for which the TGI in the assay on NCI-H522 lung, with A498 renal, with SK-MEL-5 melanoma, in the assay on HL-60(TB) leukemia, in the assay with CCRF-CEM leukemia and with SNB-75 CNS was over 100 µM each time. Also, the TGI with RPMI-8226 leukemia and in the assay with ACHN renal was over 100 µM each time.
`CC(C)CN1CC(C)C(=O)NC1=O` (configuration not stated): the TGI in the assay with NCI-H522 lung, in the assay on A498 renal, in the assay with SK-MEL-5 melanoma, in the assay with HL-60(TB) leukemia, in the assay with OVCAR-5 ovarian and with CCRF-CEM leukemia was over 100 µM each time. Further, the TGI in the assay with ACHN renal is over 100 µM.
`OCC(O)COc1c(Cl)cc(Cl)cc1Cl` (configuration not stated): the TGI in the assay with NCI-H522 lung was over 100 µM; in the assay on A498 renal it was over 100 µM; in the assay on SK-MEL-5 melanoma it was over 100 µM; in the assay with HL-60(TB) leukemia, over 100 µM; in the assay on OVCAR-5 ovarian it was over 100 µM; in the assay on CCRF-CEM leukemia, over 61.9 µM. The TGI in the assay with SNB-75 CNS was over 100 µM; in the assay with RPMI-8226 leukemia, over 64.6 µM; in the assay with ACHN renal, over 100 µM.
As for `CCOC(=O)C(=O)Nc1ccccc1OCC`, the TGI in the assay on NCI-H522 lung, in the assay on SK-MEL-5 melanoma, in the assay on HL-60(TB) leukemia, with OVCAR-5 ovarian, in the assay on CCRF-CEM leukemia and in the assay with RPMI-8226 leukemia was over 100 µM throughout. The compound further came in with a TGI in the assay with ACHN renal of over 100 µM.
On to `CN1C(=O)CCC1c1ccc2c(c1)oc(=O)n2C` (configuration not stated), for which the TGI with NCI-H522 lung, in the assay on HL-60(TB) leukemia, with OVCAR-5 ovarian, with CCRF-CEM leukemia, in the assay with SNB-75 CNS and in the assay on RPMI-8226 leukemia was over 100 µM in each case. In the assay on ACHN renal, the TGI was over 100 µM.
For `O=C(/C=C/c1ccccc1O)c1cccc2ccccc12`, the TGI with NCI-H522 lung was over 100 µM; with A498 renal it was over 100 µM; in the assay on SK-MEL-5 melanoma, over 100 µM; in the assay with HL-60(TB) leukemia, over 80.8 µM; in the assay on OVCAR-5 ovarian, over 100 µM; with CCRF-CEM leukemia it was 54 µM. The TGI is over 100 µM in the assay with SNB-75 CNS, 76.6 µM with RPMI-8226 leukemia and over 100 µM with ACHN renal.
As for `CN(C)C(=S)/N=c1\ss/c(=N\C(=S)N(C)C)n1Cc1ccco1`, the TGI in the assay on NCI-H522 lung, in the assay with A498 renal, with SK-MEL-5 melanoma, with HL-60(TB) leukemia, in the assay with CCRF-CEM leukemia and in the assay with SNB-75 CNS was over 100 µM in each case. Also, the TGI with RPMI-8226 leukemia and in the assay on ACHN renal was over 100 µM in each case.
For `Nc1c(C(=O)NC23CC4CC(CC(C4)C2)C3)[n+]([O-])c2ccccc2[n+]1[O-]`, the TGI in the assay on NCI-H522 lung, with A498 renal, in the assay with SK-MEL-5 melanoma, in the assay with HL-60(TB) leukemia, in the assay on OVCAR-5 ovarian and in the assay with CCRF-CEM leukemia was over 100 µM in each case. Also, the TGI with SNB-75 CNS, in the assay on RPMI-8226 leukemia and with ACHN renal was over 100 µM each time.
Take `O=C1CCNC(=O)NC1`: the TGI in the assay with NCI-H522 lung, in the assay on A498 renal, in the assay on SK-MEL-5 melanoma, with HL-60(TB) leukemia, in the assay with OVCAR-5 ovarian and in the assay on CCRF-CEM leukemia was over 100 µM in each case. The TGI in the assay with SNB-75 CNS, in the assay with RPMI-8226 leukemia and in the assay on ACHN renal was over 100 µM each time.
On to `Cn1nc2ccc3nccc(NCCNCCO)c3c2n1`, for which the TGI in the assay with NCI-H522 lung, in the assay with SK-MEL-5 melanoma, with HL-60(TB) leukemia, in the assay on OVCAR-5 ovarian, in the assay on CCRF-CEM leukemia and in the assay with SNB-75 CNS was over 100 µM in each case. Also, the TGI in the assay on RPMI-8226 leukemia and in the assay with ACHN renal was over 100 µM in each case.
Consider `Cc1cccc(C(C)C)c1NC(=O)CCl`, for which the TGI was 30 µM with NCI-H522 lung; over 100 µM in the assay on A498 renal; over 100 µM in the assay with SK-MEL-5 melanoma; over 100 µM with HL-60(TB) leukemia; over 100 µM with OVCAR-5 ovarian; over 100 µM in the assay on CCRF-CEM leukemia. The TGI with SNB-75 CNS, in the assay with RPMI-8226 leukemia and with ACHN renal was over 100 µM throughout.
`COc1cc(C(O)C(=O)c2cnc3cc([N+](=O)[O-])ccc3n2)ccc1O` (configuration not stated): the TGI in the assay with A498 renal, in the assay on SK-MEL-5 melanoma, in the assay with HL-60(TB) leukemia, in the assay on CCRF-CEM leukemia, in the assay with SNB-75 CNS and in the assay with RPMI-8226 leukemia was over 100 µM each time. This compound came in with a TGI with ACHN renal of over 100 µM.
`COc1ccc(N=Nc2c(-c3ccccc3)nn(C(=O)CC(=O)Nc3ccccc3Cl)c2-c2ccccc2)cc1`: the TGI in the assay with NCI-H522 lung, in the assay on A498 renal, with SK-MEL-5 melanoma, with HL-60(TB) leukemia, in the assay with OVCAR-5 ovarian and with CCRF-CEM leukemia was over 100 µM throughout. Also, the TGI in the assay with SNB-75 CNS and with ACHN renal was over 100 µM in each case.
